We go through 20 compounds from ChEMBL document CHEMBL4020831, “Discovery of GDC-0853: A Potent, Selective, and Noncovalent Bruton's Tyrosine Kinase Inhibitor in Early Clinical Development” (J Med Chem, 2018).

Data set [1] in a line: Clearance in human liver microsomes at 1 uM incubated up to 60 mins by LC-MS/MS method. It is filed as ADME, microsome.
In data set [2] the target is T1, Tyrosine-protein kinase BTK (Homo sapiens, UniProt Q06187).
Description: Inhibition of BTK in human whole blood-derived CD19+ B cells assessed as suppression of anti-IgM stimulated-CD69 expression preincubated for 1 hr followed by IgM stimulation for 18 hrs by FACS analysis
Data set [3] addresses T1, Tyrosine-protein kinase BTK. Nature of the data set: Inhibition of human recombinant C-terminal polyhistidine tagged BTK (1 to 659 residues)-mediated synthetic peptide substrate phosphorylation expressed in baculovirus-infected insect cells.
The nature of another data set: physchem. The settings on record: buffer, pH 7.4.
Data set [4] can be described thus: Permeability across apical to basolateral in MDCK1 cells. It counts as ADME, cell-based, Canis lupus familiaris. The settings on record: dog, MDCK; read-out: permeability.
A further data set in a line: in vitro. The settings on record: dog, MDCK.

T1 sequence (Q06187 whole entry, the tested form may be a part): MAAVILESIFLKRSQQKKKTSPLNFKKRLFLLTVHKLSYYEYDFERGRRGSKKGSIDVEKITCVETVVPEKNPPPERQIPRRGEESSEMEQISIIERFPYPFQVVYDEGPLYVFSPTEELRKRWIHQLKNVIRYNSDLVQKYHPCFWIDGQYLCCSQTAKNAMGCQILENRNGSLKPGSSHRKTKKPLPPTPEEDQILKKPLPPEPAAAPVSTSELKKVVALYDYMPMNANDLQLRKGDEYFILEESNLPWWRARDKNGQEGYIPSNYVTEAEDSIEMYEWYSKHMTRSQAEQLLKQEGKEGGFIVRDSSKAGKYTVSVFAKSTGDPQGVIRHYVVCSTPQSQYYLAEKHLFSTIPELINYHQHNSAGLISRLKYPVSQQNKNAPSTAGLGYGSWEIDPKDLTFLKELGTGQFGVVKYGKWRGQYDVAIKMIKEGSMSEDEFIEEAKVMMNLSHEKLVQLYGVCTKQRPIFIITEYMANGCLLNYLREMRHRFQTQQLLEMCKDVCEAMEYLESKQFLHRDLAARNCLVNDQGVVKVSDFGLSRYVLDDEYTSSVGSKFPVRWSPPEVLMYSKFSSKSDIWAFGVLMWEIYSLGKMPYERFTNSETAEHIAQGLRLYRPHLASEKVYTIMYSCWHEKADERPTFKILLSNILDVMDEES
Description for in vitro: Efflux ratio of permeability in MDCK1 cells

Regarding `CC(=O)N1CC2(C1)CN(c1ccc(Nc3cc(-c4ccnc(N5CCn6c(cc7c6CC(C)(C)C7)C5=O)c4CO)cn(C)c3=O)nc1)C2`, the CLhep predicted at 1 µM in data set [1] was 10 mL/min/kg. Also, in data set [2], the IC50 worked out at 33.4 nM. The Ki in data set [3] came to 3.3 nM. This compound yielded a logD in the data set “physchem” of 2.5.

`Cn1cc(-c2ccnc(N3CCn4c(cc5c4CC(C)(C)C5)C3=O)c2CO)cc(Nc2ccc(N3CCN(CCC(F)(F)F)CC3)cn2)c1=O`: the CLhep predicted at 1 µM in data set [1] was 16 mL/min/kg. In data set [2], the IC50 worked out at 116 nM. The Ki in data set [3] was found to be 4 nM. Moreover, the Papp A→B in data set [4] was 14.2 ×10⁻⁶ cm/s. The compound further displayed a logD in the data set “physchem” of 4.4. In the data set “in vitro”, the efflux ratio was determined as 0.6.

In the case of `Cn1cc(-c2ccnc(N3CCn4c(cc5c4CC(C)(C)C5)C3=O)c2CO)cc(Nc2ccc(C3CN(C4COC4)C3)cn2)c1=O`, the CLhep predicted at 1 µM in data set [1] was 16 mL/min/kg. Half-maximal inhibition in data set [2] (IC50) was put at 23.5 nM. In data set [3], the Ki is 0.43 nM. Besides, the Papp A→B in data set [4] is 48.5 ×10⁻⁶ cm/s. In “physchem”, this compound came in with a logD of 3. In addition, the efflux ratio in the data set “in vitro” is 0.4.

With `COCCN1CCN(c2ccc(Nc3cc(-c4ccnc(N5CCn6c(cc7c6CC(C)(C)C7)C5=O)c4CO)cn(C)c3=O)nc2)CC1`, the CLhep predicted at 1 µM in data set [1] was 12 mL/min/kg. In addition, the IC50 in data set [2] came to 36.6 nM. Moreover, the Ki in data set [3] came out at 1.2 nM. Also, the Papp A→B in data set [4] amounted to 12.5 ×10⁻⁶ cm/s. Further, in “physchem”, the logD is 3.2. Besides, in the data set “in vitro”, the efflux ratio was determined as 1.

In the case of `Cn1cc(-c2nccc(N3CCn4c(cc5c4CCCC5)C3=O)c2CO)cc(Nc2ccc(N3CCN(C4COC4)CC3)cn2)c1=O`, the CLhep predicted at 1 µM in data set [1] was 8 mL/min/kg. The IC50 in data set [2] is 387 nM. Also, in data set [3], the Ki was 6.9 nM. Besides, the logD in the data set “physchem” worked out at 1.8.

Regarding `Cn1cc(-c2cncc(N3CCn4c(cc5c4CCCC5)C3=O)c2CO)cc(Nc2ccc(N3CCN(C4COC4)CC3)cn2)c1=O`, the CLhep predicted at 1 µM in data set [1] was 7.9 mL/min/kg. Moreover, in data set [2], the IC50 was found to be 64.4 nM. For the same compound, the Ki in data set [3] is 6.3 nM. In the data set “physchem”, the logD was 1.9.

As to `CN1CCN(c2ccc(Nc3cc(-c4cc(F)cc(N5CCn6c(cc7c6CCCC7)C5=O)c4CO)cn(C)c3=O)nc2)CC1`, the CLhep predicted at 1 µM in data set [1] was 15 mL/min/kg. In the data set “physchem”, this compound showed a logD of 3.1.

In the case of `Cn1cc(-c2ccnc(N3CCn4c(cc5c4CC(C)(C)C5)C3=O)c2CO)cc(Nc2ccc(N3CCN(C4CCOCC4)CC3)cn2)c1=O`, the CLhep predicted at 1 µM in data set [1] is 14 mL/min/kg. Besides, the IC50 in data set [2] was 31.6 nM. Also, the Ki in data set [3] turned out to be 0.45 nM.

Turning to `Cn1cc(-c2ccnc(N3CCn4c5c(c(F)c4C3=O)CCCC5)c2CO)cc(Nc2ccc(N3CCN(C4COC4)CC3)cn2)c1=O`, the CLhep predicted at 1 µM in data set [1] was 8.1 mL/min/kg. The Ki in data set [3] stood at 2.5 nM.

`CC(=O)N1CCN(c2ccc(Nc3cc(-c4ccnc(N5CCn6c(cc7c6CC(C)(C)C7)C5=O)c4CO)cn(C)c3=O)nc2)CC1`: the CLhep predicted at 1 µM in data set [1] is 8.8 mL/min/kg. In addition, the IC50 in data set [2] was 66.5 nM. Moreover, in data set [3], the Ki stood at 1.8 nM. Moreover, the Papp A→B in data set [4] amounted to 11.1 ×10⁻⁶ cm/s. This compound also returned a logD in the data set “physchem” of 2.9. In “in vitro”, the efflux ratio is 1.2.

Consider `Cn1cc(-c2ccnc(N3Cc4cc(C(C)(C)C)sc4C3=O)c2CO)cc(Nc2ccc(N3CCN(C4COC4)CC3)cn2)c1=O`, for which the CLhep predicted at 1 µM in data set [1] was 10 mL/min/kg. In addition, the Ki in data set [3] was 1 nM.

As for `Cn1cc(-c2ccnc(N3CCn4c(cc5c4CCCC5)C3=O)c2CO)cc(Nc2ccc(N3CCN(C4COC4)CC3)cn2)c1=O`, in data set [1], the CLhep predicted at 1 µM is 8.1 mL/min/kg. This compound also came in with an IC50 in data set [2] of 54.9 nM. Besides, the Ki in data set [3] came out at 1.8 nM. In “physchem”, this compound showed a logD of 2.

For the compound `Cn1cc(-c2ccnc(-n3ccn4c5c(cc4c3=O)CCCC5)c2CO)cc(Nc2ccc(N3CCN(C4COC4)CC3)cn2)c1=O`, the CLhep predicted at 1 µM in data set [1] is 9.2 mL/min/kg. Further, the inhibition constant (Ki) in data set [3] stood at 4.2 nM.

Consider `C[C@H]1CN(c2ccc(Nc3cc(-c4cc(F)cc(N5CCn6c(cc7c6CCCC7)C5=O)c4CO)cn(C)c3=O)nc2)CCN1C`, for which the CLhep predicted at 1 µM in data set [1] was 13 mL/min/kg. Moreover, the IC50 in data set [2] came to 27.5 nM. Also, in data set [3], the inhibition constant (Ki) was found to be 0.32 nM. Also, in “physchem”, the logD was found to be 2.3.

In the case of `COCCCN1CCN(c2ccc(Nc3cc(-c4ccnc(N5CCn6c(cc7c6CC(C)(C)C7)C5=O)c4CO)cn(C)c3=O)nc2)CC1`, the CLhep predicted at 1 µM in data set [1] is 12 mL/min/kg. Moreover, the IC50 in data set [2] was 32.2 nM. In data set [3], the Ki was 1 nM. Also, in data set [4], the Papp A→B is 9 ×10⁻⁶ cm/s. The compound also showed a logD in the data set “physchem” of 3.3. Besides, in “in vitro”, the efflux ratio stood at 1.3.

Take `Cn1cc(-c2ccnc(N3CCc4c(sc5c4CC(C)(C)C5)C3=O)c2CO)cc(Nc2ccc(N3CCN(C4COC4)CC3)cn2)c1=O`: the CLhep predicted at 1 µM in data set [1] is 13.5 mL/min/kg. In addition, the Ki in data set [3] was 0.58 nM.

As for `C[C@@H]1CN(C)CCN1c1ccc(Nc2cc(-c3cc(F)cc(N4CCn5c(cc6c5CCCC6)C4=O)c3CO)cn(C)c2=O)nc1`, the CLhep predicted at 1 µM in data set [1] was 13 mL/min/kg. Besides, the IC50 in data set [2] was found to be 16.9 nM. In addition, in data set [3], the Ki came out at 0.37 nM. Further, the logD in “physchem” stood at 3.1.

Take `C[C@H]1CN(C)CCN1c1ccc(Nc2cc(-c3cc(F)cc(N4CCn5c(cc6c5CCCC6)C4=O)c3CO)cn(C)c2=O)nc1`: the CLhep predicted at 1 µM in data set [1] was 14 mL/min/kg. Also, it took 4.6 nM to reach half-maximal inhibition in data set [2] (IC50). Further, the Ki in data set [3] is 0.65 nM. This compound also returned a logD in the data set “physchem” of 3.2.

For the compound `Cn1cc(-c2ccnc(N3CCc4c(sc5c4CCCC5)C3=O)c2CO)cc(Nc2ccc(N3CCN(C4COC4)CC3)cn2)c1=O`, the CLhep predicted at 1 µM in data set [1] was 13 mL/min/kg. Further, the Ki in data set [3] was found to be 5.97 nM.

As to `C[C@@H]1CN(c2ccc(Nc3cc(-c4cc(F)cc(N5CCn6c(cc7c6CCCC7)C5=O)c4CO)cn(C)c3=O)nc2)CCN1C`, the CLhep predicted at 1 µM in data set [1] was 13 mL/min/kg. The IC50 in data set [2] worked out at 12.7 nM. In data set [3], the Ki was 0.43 nM. This compound also showed a logD in “physchem” of 3.3.
